Source: patent publication EP2857388A1, “Azoles containing sulfone” (Grünenthal GmbH, priority 2013, dated 2015)

Biological target: T1, human B1R (Homo sapiens, UniProt P46663)
T1 construct: expressed in transfected cells; host or cells: CHO K1 cells (Chinese Hamster Ovary), stably transfected
T1 sequence (P46663 1-353): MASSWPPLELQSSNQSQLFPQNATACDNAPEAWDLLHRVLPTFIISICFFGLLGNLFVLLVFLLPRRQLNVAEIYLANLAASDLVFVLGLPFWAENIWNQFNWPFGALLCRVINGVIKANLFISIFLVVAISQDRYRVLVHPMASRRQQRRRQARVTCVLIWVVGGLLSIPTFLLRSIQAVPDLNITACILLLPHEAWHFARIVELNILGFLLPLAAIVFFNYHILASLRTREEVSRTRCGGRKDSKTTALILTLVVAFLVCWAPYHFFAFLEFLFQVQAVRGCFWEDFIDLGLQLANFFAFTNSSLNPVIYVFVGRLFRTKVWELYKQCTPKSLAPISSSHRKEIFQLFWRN
Assay: Functional assay at bradykinin receptor 1 (B1R): Ca2+ fluorescence (Fluo-4) in FLIPR/Novostar, antagonist mode
Format: cell-based
Conditions: test substance 10 µM; CHO K1 cells stably transfected with human B1R gene (hB1R-Zellen); agonist Lys-Des-Arg9-Bradykinin at EC80; % inhibition relative to maximal achievable inhibition; read-out: % Inhibierung (human B1R) bei 10 µM
Procedure: Die agonistische bzw. antagonistische Wirkung von Substanzen kann am Bradykinin Rezeptor 1 (B1R) der Spezies Mensch und Ratte mit ektopisch exprimierenden Zelllinien (CHO K1 Zellen) und mit Hilfe eines Ca^2+-sensitiven Farbstoffs (Fluo-4) im Fluorescent Imaging Plate Reader (FLIPR) quantifiziert werden. Die Angabe in % Aktivierung wird bezogen auf das Ca^2+-Signal nach Zugabe von Lys-Des-Arg^9-Bradykinin ([…]), bzw. Des-Arg^9-Bradykinin (100 nM). Antagonisten führen zu einer Unterdrückung des Ca^2+-Einstroms nach der Zugabe des Agonisten. Angegeben werden % Inhibition im Vergleich zu der maximal erreichbaren Inhibition.
Die agonistische bzw. antagonistische Wirkung von Substanzen kann am Bradykinin Rezeptor 1 (B1R) der Spezies Mensch und Ratte mit folgendem Assay bestimmt werden. Gemäß diesem Assay wird der intrazelluläre Ca^2+-Anstieg nach Gabe eines B1 R Agonisten mit Hilfe eines Ca^2+-sensitiven Farbstoffs (Typ Fluo-4, Molecular Probes Europe BV, Leiden NL) im Fluorescent Imaging Plate Reader (FLIPR, Molecular Devices, Sunnyvale, USA) und/oder im Novostar (BMG Labtech GmbH, Offenburg, DE) quantifiziert.
Es werden Chinese Hamster Ovary Zellen (CHO K1 Zellen) verwendet, die stabil mit dem humanen B1 R-Gen (hB1R-Zellen) bzw. dem B1 R-Gen der Ratte (rB1R-Zellen) transfiziert sind. Für funktionelle Untersuchungen werden diese Zellen auf schwarze 96-Loch-Platten mit klarem Boden (BD Biosciences, Heidelberg, DE oder Greiner, Frickenhausen, DE) in einer Dichte von 20.000 - 35.000 Zellen/Loch ausplattiert. Über Nacht werden die Zellen bei 37°C und 5 % CO2 in Kulturmedium (hB1 R-Zellen: Nutrient Mixture Ham's F12, Gibco Invitrogen GmbH, Karlsruhe, Deutschland oder DMEM, Sigma-Aldrich, Taufkirchen, Deutschland; rB1R-Zellen: D-MEM/F12, Gibco Invitrogen GmbH, Karlsruhe, DE) mit 10 Vol-% FBS (Fetal bovine serum, Gibco Invitrogen GmbH, Karlsruhe, DE oder PAN Biotech GmbH, Aidenbach, DE) belassen. Am folgenden Tag werden die Zellen mit 2,13 µM Fluo-4 (Molecular Probes Europe BV, Leiden, NL) in HBSS-Puffer (Hank's buffered saline solution, Gibco Invitrogen GmbH, Karlsruhe, DE) mit 2,5 mM Probenecid (Sigma-Aldrich, Taufkirchen, DE) und 10 mM HEPES (Sigma-Aldrich, Taufkirchen, DE) für 60 min bei 37°C beladen. Anschließend werden die Platten 2 x mit HBSS-Puffer gewaschen und mit HBSS-Puffer versetzt, der zusätzlich 0,1 % BSA (bovines Serumalbumin; Sigma-Aldrich, Taufkirchen, Deutschland), 5,6 mM Glucose und 0,05 % Gelatine (Merck KGaA, Darmstadt, DE) enthält. Nach einer weiteren Inkubation von 20 Minuten bei RT werden die Platten zur Ca^2+-Messung im FLIPR oder Novostar eingesetzt. Alternativ wird mit Puffer A (15 mM HEPES, 80 mM NaCl, 5 mM KCI, 1,2 mM CaCl2, 0,7 mM MgSO4, 2g/L Glucose, 2,5 mM Probenecid) gewaschen und mit Puffer A versetzt mit 2,5 µM Fluo-4 und 0,025 % Pluronic F127 (Sigma-Aldrich, Taufkirchen, DE) beladen. Danach werden die Zellen 2 x mit Puffer A gewaschen und für 30 Minuten mit Puffer A, der zusätzlich 0,05 % BSA und 0,05 % Gelatine enthält bei RT inkubiert und danach zur Ca^2+-Messung im FLIPR oder Novostar eingesetzt.
Die Ca^2+-abhängige Fluoreszenz wird dabei vor und nach Zugabe von Substanzen gemessen (λex = 488 nm, λem = 540 nm). Die Quantifizierung erfolgt durch die Messung der höchsten Fluoreszenzintensität (FC, Fluorescence Counts) über die Zeit.
Das FLIPR-Protokoll besteht aus 2 Substanzzugaben, die im FLIPR pipettiert werden. Bei Messungen im Novostar wird nur die zweite Substanzzugabe im Gerät pipettiert. Beide Geräte messen die Fluoreszenzintensität über die Zeit. Zunächst werden Testsubstanzen (10 µM) auf die Zellen pipettiert und der intrazelluläre Ca^2+-Anstieg mit der Kontrolle (hB1 R: Lys-Des-Arg^9-Bradykinin >= 50 nM; rB1 R: Des-Arg^9-Bradykinin >= 1 µM) verglichen. Daraus ergibt sich die Angabe in % Aktivierung bezogen auf das Ca^2+-Signal nach Zugabe von Lys-Des-Arg^9-Bradykinin (>= 50 nM), bzw. Des-Arg^9-Bradykinin (>=1 µM). Nach 6-20 Minuten Inkubation werden Lys-Des-Arg^9-Bradykinin (hB1 R) bzw. […]

With `Cc1cc(S(=O)(=O)Cc2noc(C(=O)NC3CCC(N4CCCC4)CC3(C)C)n2)c(C)cc1Cl` (centres unmarked) [CC-22, 3-[[(4-Chlor-2,5-dimethyl-phenyl)sulfonyl]-methyl]-N-(2,2-dimethyl-4-pyrrolidin-1-yl-cyclohexyl)-[1,2,4]oxadiazol-5-carbonsäure amid] the inhibition at 10 µM was 100%.
In the case of `COc1cc(C)c(S(=O)(=O)Cc2noc(CC(=O)NC3CCC(N4CCCC4)CC3(C)C)n2)c(C)c1` (centres unmarked) [CC-23, N-(2,2-Dimethyl-4-pyrrolidin-1-yl-cyclohexyl)-2-[3-[[(4-methoxy-2,6-dimethyl-phenyl)sulfonyl]-methyl]-[1,2,4]oxadiazol-5-yl]-acetamid], the inhibition at 10 µM is reported as 100%.
For `Cc1cc(S(=O)(=O)Cc2noc(C(=O)NC3CCNCC3(C)C)n2)c(C)cc1Cl` (centres unmarked) [CC-24, 3-[[(4-Chlor-2,5-dimethyl-phenyl)sulfonyl]-methyl]-N-(3,3-dimethyl-piperidin-4-yl)-[1,2,4]oxadiazol-5-carbonsäure amid], the inhibition at 10 µM was 86%.
Molecule `COc1cc(C)c(S(=O)(=O)Cc2nc(CC(=O)NC3CCC(N4CCCC4)CC3(C)C)no2)c(C)c1` (centres unmarked) [CC-26, N-(2,2-Dimethyl-4-pyrrolidin-1-yl-cyclohexyl)-2-[5-[[(4-methoxy-2,6-dimethyl-phenyl)sulfonyl]-methyl]-[1,2,4]oxadiazol-3-yl]-acetamid] has an inhibition at 10 µM of 100%.
`COCCN1CCC(NC(=O)Cc2noc(CS(=O)(=O)c3c(C)cc(OC)cc3C)n2)C(C)(C)C1` (centres unmarked) [CC-27, 2-[5-[[(4-Methoxy-2,6-dimethyl-phenyl)sulfonyl]-methyl]-[1,2,4]oxadiazol-3-yl]-N-[1-(2-methoxy-ethyl)-3,3-dimethyl-piperidin-4-yl]-acetamid] showed an inhibition at 10 µM of 100%.
In the case of `COc1cc(C)c(S(=O)(=O)Cc2nc(CC(=O)NC3CCC(N(C)C)CC3)no2)c(C)c1` (centres unmarked) [CC-28, N-(4-Dimethylamino-cyclohexyl)-2-[5-[[(4-methoxy-2,6-dimethyl-phenyl)sulfonyl]-methyl]-[1,2,4]oxadiazol-3-yl]-acetamid], the inhibition at 10 µM is reported as 100%.
Work on `COc1cc(C)c(S(=O)(=O)Cc2nnc(CC(=O)NC3CCC(N4CCCC4)CC3(C)C)o2)c(C)c1` (centres unmarked) [CC-29, N-(2,2-Dimethyl-4-pyrrolidin-1-yl-cyclohexyl)-2-[5-[[(4-methoxy-2,6-dimethyl-phenyl)sulfonyl]-methyl]-[1,3,4]oxadiazol-2-yl]-acetamid] yielded an inhibition at 10 µM of 100%.
Work on `COc1cc(C)c(S(=O)(=O)Cc2nc(CC(=O)NC3CCN(C(C)=O)CC3(C)C)no2)c(C)c1` (centres unmarked) [CC-30, N-(1-Acetyl-3,3-dimethyl-piperidin-4-yl)-2-[5-[[(4-methoxy-2,6-dimethyl-phenyl)sulfonyl]-methyl]-[1,2,4]oxadiazol-3-yl]-acetamid] yielded an inhibition at 10 µM of 90%.
With `COCCN1CCC(NC(=O)Cc2nnc(CS(=O)(=O)c3c(C)cc(OC)cc3C)o2)C(C)(C)C1` (centres unmarked) [CC-31, 2-[5-[[(4-Methoxy-2,6-dimethyl-phenyl)sulfonyl]-methyl]-[1,3,4]oxadiazol-2-yl]-N-[1-(2-methoxy-ethyl)-3,3-dimethyl-piperidin-4-yl]-acetamid] the inhibition at 10 µM was 100%.
With `COc1cc(C)c(S(=O)(=O)Cc2nc(CC(=O)NC3CCC(N4CCCC4)CC3)no2)c(C)c1` (centres unmarked) [CC-32, 2-[5-[[(4-Methoxy-2,6-dimethyl-phenyl)sulfonyl]-methyl]-[1,2,4]oxadiazol-3-yl]-N-(4-pyrrolidin-1-yl-cyclohexyl)-acetamid] the inhibition at 10 µM was 100%.
`COc1cc(C)c(S(=O)(=O)Cc2nc(CC(=O)NC3CCC(N4CCN(C)CC4)CC3(C)C)no2)c(C)c1` (centres unmarked) [CC-33, N-[2,2-Dimethyl-4-(4-methyl-piperazin-1-yl)-cyclohexyl]-2-[5-[[(4-methoxy-2,6-dimethyl-phenyl)sulfonyl]-methyl]-[1,2,4]oxadiazol-3-yl]-acetamid] showed an inhibition at 10 µM of 100%.
Work on `COc1cc(C)c(S(=O)(=O)Cc2nnc(CC(=O)NC3CCC(N(C)C)CC3)o2)c(C)c1` (centres unmarked) [CC-34, N-(4-Dimethylamino-cyclohexyl)-2-[5-[[(4-methoxy-2,6-dimethyl-phenyl)sulfonyl]-methyl]-[1,3,4]oxadiazol-2-yl]-acetamid] yielded an inhibition at 10 µM of 100%.
For `COc1cc(C)c(S(=O)(=O)Cc2nc(CC(=O)NC3CCC(NC4CC4)CC3(C)C)no2)c(C)c1` (centres unmarked) [CC-35, N-[4-(Cyclopropylamino)-2,2-dimethyl-cyclohexyl]-2-[5-[[(4-methoxy-2,6-dimethyl-phenyl)sulfonyl]-methyl]-[1,2,4]oxadiazol-3-yl]-acetamid], the inhibition at 10 µM was 100%.
For `COc1cc(C)c(S(=O)(=O)Cc2nnc(CC(=O)NC3CCC(c4ccncc4)CC3(C)C)o2)c(C)c1` (centres unmarked) [CC-36, N-(2,2-Dimethyl-4-pyridin-4-yl-cyclohexyl)-2-[5-[[(4-methoxy-2,6-dimethyl-phenyl)sulfonyl]-methyl]-[1,3,4]oxadiazol-2-yl]-acetamid], the inhibition at 10 µM was 100%.
`COc1cc(C)c(S(=O)(=O)Cc2nc(CC(=O)NC3CCC(c4ccncc4)CC3(C)C)no2)c(C)c1` (centres unmarked) [CC-37, N-(2,2-Dimethyl-4-pyridin-4-yl-cyclohexyl)-2-[5-[[(4-methoxy-2,6-dimethyl-phenyl)sulfonyl]-methyl]-[1,2,4]oxadiazol-3-yl]-acetamid] showed an inhibition at 10 µM of 99%.
`COc1cc(C)c(S(=O)(=O)Cc2nnc(CC(=O)NC3CCC(N4CCCC4)CC3)o2)c(C)c1` (centres unmarked) [CC-40] was tested, and the inhibition at 10 µM was 100%.
With `COc1cc(C)c(S(=O)(=O)Cc2nc(CC(=O)NC3CCNCC3)no2)c(C)c1` [CC-42, 2-[5-[[(4-Methoxy-2,6-dimethyl-phenyl)sulfonyl]-methyl]-[1,2,4]oxadiazol-3-yl]-N-piperidin-4-yl-acetamid] the inhibition at 10 µM was 100%.
For `Cc1cc(S(=O)(=O)Cc2noc(CC(=O)NC3CCC(N4CCCC4)CC3(C)C)n2)c(C)cc1Cl` (centres unmarked) [CC-43, 2-[3-[[(4-Chlor-2,5-dimethyl-phenyl)sulfonyl]-methyl]-[1,2,4]oxadiazol-5-yl]-N-(2,2-dimethyl-4-pyrrolidin-1-yl-cyclohexyl)-acetamid], the inhibition at 10 µM was 99%.
`Cc1cc(S(=O)(=O)Cc2noc(CC(=O)NC3CCC(N4CCN(C)CC4)CC3(C)C)n2)c(C)cc1Cl` (centres unmarked) [CC-45, 2-[3-[[(4-Chlor-2,5-dimethyl-phenyl)sulfonyl]-methyl]-[1,2,4]oxadiazol-5-yl]-N-[2,2-dimethyl-4-(4-methyl-piperazin-1-yl)-cyclohexyl]-acetamid] gave an inhibition at 10 µM of 100%.
For `CC(=O)N1CCC(NC(=O)Cc2nc(CS(=O)(=O)c3cc(C)c(Cl)cc3C)no2)C(C)(C)C1` (centres unmarked) [CC-46, N-(1-Acetyl-3,3-dimethyl-piperidin-4-yl)-2-[3-[[(4-chlor-2,5-dimethyl-phenyl)sulfonyl]-methyl]-[1,2,4]oxadiazol-5-yl]-acetamid], the inhibition at 10 µM was 64%.
